Legend:
Format in all cases: binding
panel of 442 kinases [1] = molecular target: T1, panel of 442 kinases (Homo sapiens, UniProt P45984); settings: Compound Concentration 10 µM
T1 construct: purchased KINOMEscan
Text: (§1) We assessed the selectivity of members of this scaffold using the KINOMEscan methodology across a near comprehensive panel of 442 kinases [[18,27]].

panel of 442 kinases [2] = molecular target: T2, panel of 442 kinases (Homo sapiens, UniProt Q15569); settings: kinase TESK1; compound concentration 10 µM
T2 construct: purchased KINOMEscan
T2 sequence (Q15569 whole entry): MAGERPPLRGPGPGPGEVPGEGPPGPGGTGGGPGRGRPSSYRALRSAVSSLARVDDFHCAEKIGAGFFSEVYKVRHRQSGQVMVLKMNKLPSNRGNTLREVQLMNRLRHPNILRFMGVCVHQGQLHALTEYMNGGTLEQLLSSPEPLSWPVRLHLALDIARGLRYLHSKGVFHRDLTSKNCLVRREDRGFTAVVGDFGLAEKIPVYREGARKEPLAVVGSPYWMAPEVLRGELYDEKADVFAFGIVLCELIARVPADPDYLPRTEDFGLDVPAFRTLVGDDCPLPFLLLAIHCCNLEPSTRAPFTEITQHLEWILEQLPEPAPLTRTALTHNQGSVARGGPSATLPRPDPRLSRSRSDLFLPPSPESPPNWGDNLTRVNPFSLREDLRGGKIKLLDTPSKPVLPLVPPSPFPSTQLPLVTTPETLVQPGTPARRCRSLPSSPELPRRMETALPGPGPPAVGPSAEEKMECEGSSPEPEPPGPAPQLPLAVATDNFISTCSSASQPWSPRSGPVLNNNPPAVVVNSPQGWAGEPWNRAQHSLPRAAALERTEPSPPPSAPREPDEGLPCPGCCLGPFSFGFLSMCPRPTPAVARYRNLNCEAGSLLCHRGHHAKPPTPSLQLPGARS
Text: as §1

panel of 442 kinases [3] = molecular target: T3, panel of 442 kinases (Homo sapiens, UniProt Q86Y07); settings: kinase VRK2; compound concentration 10 µM
T3 construct: purchased KINOMEscan
T3 sequence (Q86Y07 whole entry): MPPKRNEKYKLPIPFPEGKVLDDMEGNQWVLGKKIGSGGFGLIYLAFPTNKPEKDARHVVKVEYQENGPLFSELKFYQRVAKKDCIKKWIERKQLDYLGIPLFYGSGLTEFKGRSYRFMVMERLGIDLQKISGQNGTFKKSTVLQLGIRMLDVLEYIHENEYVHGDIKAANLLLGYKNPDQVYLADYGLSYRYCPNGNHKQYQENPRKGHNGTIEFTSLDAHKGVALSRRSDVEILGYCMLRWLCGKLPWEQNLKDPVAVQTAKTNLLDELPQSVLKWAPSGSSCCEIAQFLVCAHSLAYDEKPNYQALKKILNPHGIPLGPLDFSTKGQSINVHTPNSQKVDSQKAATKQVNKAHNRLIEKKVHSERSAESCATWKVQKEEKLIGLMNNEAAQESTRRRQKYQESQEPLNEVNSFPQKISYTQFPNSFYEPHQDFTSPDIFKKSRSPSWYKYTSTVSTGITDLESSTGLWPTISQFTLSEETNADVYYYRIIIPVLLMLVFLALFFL
Text: as §1

panel of 442 kinases [4] = molecular target: T4, panel of 442 kinases (Homo sapiens, UniProt Q9NY57); settings: kinase YANK2; compound concentration 10 µM
T4 construct: purchased KINOMEscan
T4 sequence (Q9NY57 whole entry): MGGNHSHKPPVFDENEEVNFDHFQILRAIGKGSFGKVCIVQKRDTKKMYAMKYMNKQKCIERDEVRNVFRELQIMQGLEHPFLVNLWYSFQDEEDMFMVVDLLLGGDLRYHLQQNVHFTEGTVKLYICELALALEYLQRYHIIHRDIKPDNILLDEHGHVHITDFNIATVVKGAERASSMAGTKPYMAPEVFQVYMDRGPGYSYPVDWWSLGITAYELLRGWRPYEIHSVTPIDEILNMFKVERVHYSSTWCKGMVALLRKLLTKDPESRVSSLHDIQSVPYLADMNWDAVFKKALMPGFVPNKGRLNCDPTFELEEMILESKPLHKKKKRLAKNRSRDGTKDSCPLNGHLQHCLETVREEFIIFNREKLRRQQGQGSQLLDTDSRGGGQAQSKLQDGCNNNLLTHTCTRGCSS
Text: as §1

T1 sequence (P45984 whole entry): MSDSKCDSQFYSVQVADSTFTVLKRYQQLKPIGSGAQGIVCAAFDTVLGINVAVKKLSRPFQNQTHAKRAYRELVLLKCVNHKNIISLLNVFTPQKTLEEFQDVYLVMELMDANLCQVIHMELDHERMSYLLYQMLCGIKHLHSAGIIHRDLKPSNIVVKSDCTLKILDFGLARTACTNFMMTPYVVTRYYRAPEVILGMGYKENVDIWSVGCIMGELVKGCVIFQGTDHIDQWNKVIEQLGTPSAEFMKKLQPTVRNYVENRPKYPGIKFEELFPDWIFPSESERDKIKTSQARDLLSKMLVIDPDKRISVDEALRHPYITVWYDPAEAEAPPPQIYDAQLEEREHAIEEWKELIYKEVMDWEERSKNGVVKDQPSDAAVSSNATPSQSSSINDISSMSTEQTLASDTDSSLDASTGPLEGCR

Compound | KINOMEscan: JNK2 (panel of 442 kinases [1]) | % Ctrl, TESK1 (panel of 442 kinases [2]) | % Ctrl, VRK2 (panel of 442 kinases [3]) | % Ctrl, YANK2 (panel of 442 kinases [4])
COc1cc(C(=O)N2CCC(N3CCN(C)CC3)CC2)ccc1Nc1ncc2c(n1)N(C)c1ccccc1C(=O)N2C [15 (LRRK2-IN-1)] | 94 | 82 % Ctrl | 99 % Ctrl | 100 % Ctrl
COc1cc(C(=O)N2CCC(N3CCN(C)CC3)CC2)ccc1Nc1ncc2c(n1)N1CCc3cccc(c31)C(=O)N2C [Compound 24] | 42 | 84 % Ctrl | 100 % Ctrl | 100 % Ctrl
COc1cc(C(=O)N2CCC(N3CCN(C)CC3)CC2)ccc1Nc1ncc2c(n1)N(C1CCCC1)c1ccccc1C(=O)N2C [Compound 25, 11-cyclopentyl-2-((2-methoxy-4-(4-(4-methylpiperazin-1-yl)piperidine-1-carbonyl)phenyl)amino)-5-methyl-5H-benzo[e]pyrimido[5,4-b][1,4]diazepin-6(11H)-one] | 44 | 100 % Ctrl | 100 % Ctrl | 100 % Ctrl
CCOc1cc(C(=O)N2CCC(N3CCN(C)CC3)CC2)ccc1Nc1ncc2c(n1)N(C1CCCC1)c1ccccc1C(=O)N2C [Compound 26] | 63 | 100 % Ctrl | 82 % Ctrl | 100 % Ctrl
